Results: US9365574B2, “Soluble guanylate cyclase activators” (Merck Sharp & Dohme Corp., priority 2010, dated 2016)

The molecules below were run on Spontaneously hypertensive rats (SHR) (assay: Acute Efficacy in Spontaneously Hypertensive Rats (SHR), telemetry blood pressure). Conditions: dose 0.3 mpk.
Format: in vivo, rat
In short: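 Male SHR with aortic telemetry catheters, 14-day recovery, conscious and freely moving; single oral gavage in 10% transcutol/20% Cremophor/70% water. BP sampled 30 s every 10 min, hourly averages minus prior-day vehicle baseline; value is maximum peak SBP decrease at stated mg/kg PO dose.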

| SMILES | Maximum SBP reduction |
| --- | --- |
| CC1(C(=O)NC2CC2)C(=O)Nc2nc(-c3nn(CCC(F)(F)C(F)(F)F)c4cc(Cl)ccc34)nc(N)c21 (single isomer, unassigned) [Example 160, 4-Amino-2-[6-Chloro-1-(3,3,4,4,4-Pentafluorobutyl)-1H-Indazol-3-yl]-N-Cyclopropyl-5-Methyl-6-Oxo-6,7-Dihydro-5H-Pyrrolo[2,3-D]Pyrimidine-5-Carboxamide] | 77 ± 10 mmHg |

Same assay, conditions: single oral dose 0.1 mpk P.O.

| SMILES | Maximum peak decrease of systolic blood pressure (SBP) in SHR, Category |
| --- | --- |
| CC1(c2nnc(CC(F)(F)F)o2)C(=O)Nc2nc(-c3nn(CCC(F)(F)C(F)(F)F)c4ncccc34)nc(N)c21 (stereo not drawn) [Example 216, 4-amino-5-methyl-2-[1-(3,3,4,4,4-pentafluorobutyl)-1H-pyrazolo[3,4-b]pyridin-3-yl]-5-[5-(2,2,2-trifluoroethyl)-1,3,4-oxadiazol-2-yl]-5,7-dihydro-6H-pyrrolo[2,3-d]pyrimidin-6-one] | A (Category A=SBP in SHRs<25 mmHg) |

Same assay, conditions: single oral dose 0.3 mpk P.O.

| SMILES | Maximum peak decrease of systolic blood pressure (SBP) in SHR, Category |
| --- | --- |
| CC1(C(=O)NC2COC2)C(=O)Nc2nc(-c3nn(CCC(F)(F)C(F)(F)F)c4ncccc34)nc(N)c21 (stereo not drawn) [Example 231, 4-amino-5-methyl-N-oxetan-3-yl-6-oxo-2-[1-(3,3,4,4,4-pentafluorobutyl)-1H-pyrazolo[3,4-b]pyridin-3-yl]-6,7-dihydro-5H-pyrrolo[2,3-d]pyrimidine-5-carboxamide] | C (Category C=SBP in SHRs>40 mmHg) |
| CC1(C(=O)Nc2cccnc2)C(=O)Nc2nc(-c3nn(CCOC(F)(F)F)c4ncccc34)nc(N)c21 (stereo not drawn) [Example 233, 4-amino-5-methyl-6-oxo-N-pyridin-3-yl-2-{1-[2-(trifluoromethoxy)ethyl]-1H-pyrazolo[3,4-b]pyridin-3-yl}-6,7-dihydro-5H-pyrrolo[2,3-d]pyrimidine-5-carboxamide] | B (Category B=SBP in SHRs 25-40 mmHg) |
| CC1(C(=O)NC2CC2)C(=O)Nc2nc(-c3nn(CCC(F)F)c4ncccc34)nc(N)c21 (stereo not drawn) [Example 238, 4-amino-N-cyclopropyl-2-[1-(3,3-difluoropropyl)-1H-pyrazolo[3,4-b]pyridin-3-yl]-5-methyl-6-oxo-6,7-dihydro-5H-pyrrolo[2,3-d]pyrimidine-5-carboxamide] | B (Category B=SBP in SHRs 25-40 mmHg) |
| Cn1cc(NC(=O)C2(C)C(=O)Nc3nc(-c4nn(CCOC(F)(F)F)c5ncccc45)nc(N)c32)cn1 (stereo not drawn) [Example 215, 4-amino-5-methyl-N-(1-methyl-1H-pyrazol-4-yl)-6-oxo-2-{1-[2-(trifluoromethoxy)ethyl]-1H-pyrazolo[3,4-b]pyridin-3-yl}-6,7-dihydro-5H-pyrrolo[2,3-d]pyrimidine-5-carboxamide] | B (Category B=SBP in SHRs 25-40 mmHg) |
| CC1(C(=O)NC2CC2)C(=O)Nc2nc(-c3nn(CCC(F)(F)C(F)(F)F)c4ccccc34)nc(N)c21 (stereo not drawn) [Example 194, 4-amino-N-cyclopropyl-5-methyl-6-oxo-2-[1-(3,3,4,4,4-pentafluorobutyl)-1H-indazol-3-yl]-6,7-dihydro-5H-pyrrolo[2,3-d]pyrimidine-5-carboxamide] | C (Category C=SBP in SHRs>40 mmHg) |
| CC1(C(=O)NC2CC2)C(=O)Nc2nc(-c3nn(CCC(F)(F)C(F)(F)F)c4cc(Cl)ccc34)nc(N)c21 (single isomer, unassigned) [Example 160, 4-Amino-2-[6-Chloro-1-(3,3,4,4,4-Pentafluorobutyl)-1H-Indazol-3-yl]-N-Cyclopropyl-5-Methyl-6-Oxo-6,7-Dihydro-5H-Pyrrolo[2,3-D]Pyrimidine-5-Carboxamide] | C (Category C=SBP in SHRs>40 mmHg) |
| C#CC1(C)C(=O)Nc2nc(-c3nn(CCC(F)(F)C(F)(F)F)c4ncccc34)nc(N)c21 (stereo not drawn) [Example 219, 4-amino-5-ethynyl-5-methyl-2-[1-(3,3,4,4,4-pentafluorobutyl)-1H-pyrazolo[3,4-b]pyridin-3-yl]-5,7-dihydro-6H-pyrrolo[2,3-d]pyrimidin-6-one] | C (Category C=SBP in SHRs>40 mmHg) |
| Nc1nc(-c2nn(CCCC(F)(F)F)c3ncccc23)nc2c1C(C(=O)NC1CC1)(C1CC1)C(=O)N2 (stereo not drawn) [Example 246, 4-amino-N,5-dicyclopropyl-6-oxo-2-[1-(4,4,4-trifluorobutyl)-1H-pyrazolo[3,4-b]pyridin-3-yl]-6,7-dihydro-5H-pyrrolo[2,3-d]pyrimidine-5-carboxamide] | C (Category C=SBP in SHRs>40 mmHg) |
| Cc1nc(C2(C)C(=O)Nc3nc(-c4nn(CCC(F)(F)C(F)(F)F)c5cc(Cl)ccc45)nc(N)c32)sc1C (stereo not drawn) [Example 167, 4-Amino-2-[6-Chloro-1-(3,3,4,4,4-Pentafluorobutyl)-1H-Indazol-3-yl]-5-(4,5-Dimethyl-1,3-Thiazol-2-yl)-5-Methyl-5,7-Dihydro-6H-Pyrrolo[2,3-D]Pyrimidin-6-One] | B (Category B=SBP in SHRs 25-40 mmHg) |
| CC1(NCC2CC2)C(=O)Nc2nc(-c3nn(CCC(F)(F)C(F)(F)F)c4cc(Cl)ccc34)nc(N)c21 (stereo not drawn) [Example 202, 4-amino-2-[6-chloro-1-(3,3,4,4,4-pentafluorobutyl)-1H-indazol-3-yl)-5-[(cyclopropylmethyl)amino]-5-methyl-5,7-dihydro-6H-pyrrolo[2,3-d]pyrimidin-6-one] | C (Category C=SBP in SHRs>40 mmHg) |
| CC1(C(=O)NC2CC2)C(=O)Nc2nc(-c3nn(CCCC(F)(F)F)c4ncccc34)nc(N)c21 (stereo not drawn) [Example 222, 4-amino-N-cyclopropyl-5-methyl-6-oxo-2-[1-(4,4,4-trifluorobutyl)-1H-pyrazolo[3,4-b]pyridin-3-yl]-6,7-dihydro-5H-pyrrolo[2,3-d]pyrimidine-5-carboxamide] | C (Category C=SBP in SHRs>40 mmHg) |

Same assay, conditions: single oral dose 1 mpk P.O.

| SMILES | Maximum peak decrease of systolic blood pressure (SBP) in SHR, Category |
| --- | --- |
| CC1(C(=O)NC2CC2)C(=O)Nc2nc(-c3nn(CCC(F)(F)F)c4nc(C#N)ccc34)nc(N)c21 (stereo not drawn) [Example 221, 4-amino-2-[6-cyano-1-(3,3,3-trifluoropropyl)-1H-pyrazolo[3,4-b]pyridin-3-yl]-N-cyclopropyl-5-methyl-6-oxo-6,7-dihydro-5H-pyrrolo[2,3-d]pyrimidine-5-carboxamide] | C (Category C=SBP in SHRs>40 mmHg) |
| CC1(C(=O)NC2CC2)C(=O)Nc2nc(-c3nn(CCC(F)(F)F)c4nc(C5CC5)ccc34)nc(N)c21 (stereo not drawn) [Example 224, 4-amino-N-cyclopropyl-2-[6-cyclopropyl-1-(3,3,3-trifluoropropyl)-1H-pyrazolo[3,4-b]pyridin-3-yl]-5-methyl-6-oxo-6,7-dihydro-5H-pyrrolo[2,3-d]pyrimidine-5-carboxamide] | B (Category B=SBP in SHRs 25-40 mmHg) |
